In brackets after ≈: the same amount, converted by molar mass.
Columns and labels:
Assay type in all cases: physicochemical
[1] = Solubility test of amorphous substance (room temperature); conditions: read-out: Roughly measured solubility
Description: About 10 mg of amorphous substance was weighted and placed into an 8 mL glass bottle, and a solvent was gradually added at room temperature. 5 μL of solvent was added each time until all the solids were dissolved, and if 8 mL of solvent was added and the solids were not dissolved, the solvent addition was stopped. Table 1. Test results of solubility of amorphous substance of compound represented by Formula (1) (room temperature)

[2] = Dynamic vapor sorption (DVS) hygroscopicity; conditions: for Hygroscopicity (DVS): 80% humidity, 25° C.; for Solid form by XRPD before and after DVS test: XRPD before vs after DVS
Description: The sample was analyzed through Intrinsic DVS ([…]). The amount of test sample was about 20-30 mg. The temperature of a test room was controlled between 25±1° C., the relative humidity increased from 0% to 90% and then decreased to 0% at a rate of 10%/h, and mass data was recorded every 20 s.
The DVS curve was acquired from DVS Intrinsic through an SMS (Surface Measurement Systems). The relative humidity at 25° C. was calibrated according to deliquescent points of LiCl, Mg(NO3)2 and KCl.

[3] = Stability Test 1 (80° C., lighting, 25° C./60% RH, 40° C./75% RH; HPLC)
Description: • Chromatographic conditions: • Chromatographic column: C18 column; • Running time: 60 min; • UV detector: 210 nm; • Flow rate: 1.0 mL/min; • Injection volume: 5 μL.
A certain amount of crystals and amorphous raw materials were weighed and placed in liquid phase vials, and a total of 5 parts were prepared. The 5 parts were respectively placed under 80° C. (opened), 25° C./60% RH (opened), and 40° C./75% RH (opened) and in a stable lighting chamber (closed, 5000±500 Lx), and the stability under lighting for 10 days, 80° C. 1 day, and the chemical stability under 25° C. and 60% RH and under 40° C. and 75% RH for 1 week were determined by liquid phase, and the XRPD of the solid was determined.

[4] = Solubility test of crystal form (room temperature); conditions: thermodynamic from solid
Description: About 5 mg of the crystal form sample was weighed and placed in an 8 mL glass bottle, and solvent was gradually added at room temperature. 10 μL of solvent was added each time until all solids were dissolved, and if 5 mL of solvent was added and the solids were not dissolved, the solvent addition was stopped.

[5] = Accelerated stability test of crystal form (Example 3, 40±2° C./75±5% RH)
Description: The sample was taken at 0th, 1st and 3rd month for analysis, the stability of the samples was determined by liquid phase, and the crystal form was determined by XRPD.

[6] = Accelerated stability test, packaged crystal form (Table 6); conditions: 40 ± 2° C./75 ± 5% RH
From the text: (§1) Packaging requirements: it is needed to simulate commercially available packaging for the stability sample, the two inner layers are inner flat-bottom bags made of pharmaceutical polyethylene, the first layer of inner bag is tied and sealed, the second layer of inner bag is subjected to heat sealing, an aluminum foil bag at an outer layer is subjected to heat sealing, a package of desiccant is placed between the aluminum foil bag and the second layer of inner bag, and the package is placed in a fiber can.
The sample was taken in the 0th, 1st, 2nd, 3rd and 6th months. The test items, test methods and technical requirements are detailed in Table 6, and the test results are compared with those in the 0th month.

[7] = Long-term stability test, packaged crystal form (Table 7); conditions: 30±2° C./65±5% RH
From the text: as §1
The sample was taken in the 0th, 3rd and 6th months. The test items, test methods and technical requirements are detailed in Table 7, and the test results are compared with those in the 0th month.

[8] = 25° C., 60% RH (opened), 1 week
[9] = 40° C., 75% RH (opened), 1 week
[10] = Lighting (closed, 5000±500 Lx), 10 Days

Structure (SMILES): CC(C)C(=O)O[C@@H](C)OC(=O)NC(C)(C)C(=O)N[C@H](COCc1ccccc1)C(=O)N1CCC2(CC1)CN(S(C)(=O)=O)c1ccccc12 [amorphous substance, (4R,11R)-7,7-dimethyl-4-(1-(methylsulfonyl)spiro[indoldoline-3,4′-piperidine]-1′-carbonyl)-6,9-dioxo-1-phenyl-2,10-dioxa-5,8-diazadodecane-11-ylisobutyrate]
- solubility ([1]; organic solvent or mixture, thermodynamic from solid, 1,4-Dioxane): > 760 mg/mL
- solubility ([1]; organic solvent or mixture, thermodynamic from solid, Acetone): > 520 mg/mL
- solubility ([1]; organic solvent or mixture, thermodynamic from solid, Acetonitrile): > 587 mg/mL
- solubility ([1]; organic solvent or mixture, thermodynamic from solid, Anisole): > 510 mg/mL
- solubility ([1]; organic solvent or mixture, thermodynamic from solid, Butanone): > 700 mg/mL
- solubility ([1]; organic solvent or mixture, thermodynamic from solid, Cyclohexane): < 1.2 mg/mL
- solubility ([1]; organic solvent or mixture, thermodynamic from solid, Dichloromethane): > 798 mg/mL
- solubility ([1]; organic solvent or mixture, thermodynamic from solid, Dimethyl sulfoxide): > 450 mg/mL
- solubility ([1]; organic solvent or mixture, thermodynamic from solid, Ethanol): > 480 mg/mL
- solubility ([1]; organic solvent or mixture, thermodynamic from solid, Ethyl acetate): > 600 mg/mL
- solubility ([1]; organic solvent or mixture, thermodynamic from solid, Ethyl formate): > 405 mg/mL
- solubility ([1]; organic solvent or mixture, thermodynamic from solid, Isopropanol): > 432 mg/mL
- solubility ([1]; organic solvent or mixture, thermodynamic from solid, Isopropyl acetate): > 643 mg/mL
- solubility ([1]; organic solvent or mixture, thermodynamic from solid, Methanol): > 725 mg/mL
- solubility ([1]; organic solvent or mixture, thermodynamic from solid, Methyl isobutyl ketone): > 400 mg/mL
- solubility ([1]; organic solvent or mixture, thermodynamic from solid, Methyl tert-butyl ether): > 70 mg/mL
- solubility ([1]; organic solvent or mixture, thermodynamic from solid, N-heptane): < 1.3 mg/mL
- solubility ([1]; organic solvent or mixture, thermodynamic from solid, N-hexane): < 1.2 mg/mL
- solubility ([1]; organic solvent or mixture, thermodynamic from solid, N-propanol): > 460 mg/mL
- solubility ([1]; organic solvent or mixture, thermodynamic from solid, Tetrahydrofuran): > 553 mg/mL
- solubility ([1]; organic solvent or mixture, thermodynamic from solid, Toluene): > 473 mg/mL
- solubility ([1]; thermodynamic from solid, Water): < 1.3 mg/mL
- Hygroscopicity (DVS) [2]: slightly hygroscopic
- Solid form by XRPD before and after DVS test [2]: the morphology of the solid did not change
- Degradation (%) [3, 8]: 0.01%
- Purity (%) [3, 8]: 99.27%
- Degradation (%) [3, 9]: 0.03%
- Purity (%) [3, 9]: 99.25%
- Degradation (%) ([3]; 80° C. (opened), 1 Day): 0.18%
- Purity (%) ([3]; 80° C. (opened), 1 Day): 99.10%
- Purity (%) ([3]; Initial): 99.28%
- Degradation (%) [3, 10]: 1.02%
- Purity (%) [3, 10]: 98.26%

Structure (SMILES): CC(C)C(=O)O[C@@H](C)OC(=O)NC(C)(C)C(=O)N[C@H](COCc1ccccc1)C(=O)N1CCC2(CC1)CN(S(C)(=O)=O)c1ccccc12 [crystal form, (4R,11R)-7,7-dimethyl-4-(1-(methylsulfonyl)spiro[indoldoline-3,4′-piperidine]-1′-carbonyl)-6,9-dioxo-1-phenyl-2,10-dioxa-5,8-diazadodecane-11-ylisobutyrate]
- solubility ([4]; organic solvent or mixture, Acetone): ~117 mg/mL (≈ 170 mM)
- solubility ([4]; organic solvent or mixture, Acetonitrile): ~128 mg/mL (≈ 186 mM)
- solubility ([4]; organic solvent or mixture, Dichloromethane): ~251 mg/mL (≈ 365 mM)
- solubility ([4]; organic solvent or mixture, Ethanol): ~20.9 mg/mL (≈ 30.4 mM)
- solubility ([4]; organic solvent or mixture, Ethyl acetate): ~133 mg/mL (≈ 193 mM)
- solubility ([4]; organic solvent or mixture, Methyl tert-butyl ether): ~0.7 mg/mL (≈ 1.02 mM)
- solubility ([4]; organic solvent or mixture, N-heptane): < 0.6 mg/mL
- solubility ([4]; organic solvent or mixture, Tetrahydrofuran): ~232 mg/mL (≈ 339 mM)
- solubility ([4]; organic solvent or mixture, Toluene): ~13.2 mg/mL (≈ 19.2 mM)
- solubility ([4]; Water): < 0.7 mg/mL
- Moisture adsorption (DVS) ([2]; 25° C./80% RH): 0.10%
- Hygroscopicity (DVS) [2]: almost had no hygroscopicity
- Solid form by XRPD before and after DVS test [2]: the crystal form did not vary
- Degradation (%) [3, 8]: 0.02%
- Purity (%) [3, 8]: 99.69%
- Degradation (%) [3, 9]: 0.1%
- Purity (%) [3, 9]: 99.61%
- Degradation (%) ([3]; 80° C. (opened), 1 Day): 0.12%
- Purity (%) ([3]; 80° C. (opened), 1 Day): 99.59%
- Purity (%) ([3]; Initial): 99.71%
- Degradation (%) [3, 10]: 0.35%
- Purity (%) [3, 10]: 99.36%
- Total impurities (%) ([5]; 1 month): 0.07%
- Total impurities (%) ([5]; 3 months): 0.05%
- Total impurities (%) ([5]; Initial): 0.07%
- Conclusion ([6]; 0th month): Qualified
- Content (anhydrous and insoluble residue)/HPLC ([6]; 0th month): 99.4%
- Isomer/HPLC: Chiral purity ([6]; 0th month): 100.0%
- Isomer/HPLC: Isomer 1 ([6]; 0th month): 0.05%
- Moisture ([6]; 0th month): 0.2%
- Related substances/HPLC: Impurity 3 ([6]; 0th month): <0.05%
- Related substances/HPLC: Other impurities ([6]; 0th month): 0.05%
- Related substances/HPLC: Total impurities ([6]; 0th month): 0.05%
- Conclusion ([6]; 1st month): Qualified
- Content (anhydrous and insoluble residue)/HPLC ([6]; 1st month): 99.0%
- Isomer/HPLC: Chiral purity ([6]; 1st month): 100.0%
- Isomer/HPLC: Isomer 1 ([6]; 1st month): 0.04%
- Moisture ([6]; 1st month): 0.1%
- Related substances/HPLC: Impurity 3 ([6]; 1st month): <0.05%
- Related substances/HPLC: Other impurities ([6]; 1st month): 0.05%
- Related substances/HPLC: Total impurities ([6]; 1st month): 0.05%
- Conclusion ([6]; 2nd month): Qualified
- Content (anhydrous and insoluble residue)/HPLC ([6]; 2nd month): 98.9%
- Isomer/HPLC: Chiral purity ([6]; 2nd month): 100.0%
- Isomer/HPLC: Isomer 1 ([6]; 2nd month): 0.04%
- Moisture ([6]; 2nd month): 0.2%
- Related substances/HPLC: Impurity 3 ([6]; 2nd month): <0.05%
- Related substances/HPLC: Other impurities ([6]; 2nd month): 0.05%
- Related substances/HPLC: Total impurities ([6]; 2nd month): 0.05%
- Conclusion ([6]; 3rd month): Qualified
- Content (anhydrous and insoluble residue)/HPLC ([6]; 3rd month): 98.9%
- Isomer/HPLC: Chiral purity ([6]; 3rd month): 100.0%
- Isomer/HPLC: Isomer 1 ([6]; 3rd month): 0.04%
- Moisture ([6]; 3rd month): 0.1%
- Related substances/HPLC: Impurity 3 ([6]; 3rd month): <0.05%
- Related substances/HPLC: Other impurities ([6]; 3rd month): <0.05%
- Related substances/HPLC: Total impurities ([6]; 3rd month): <0.05%
- Stability under the accelerated condition ([6]; 6 months vs 0th month): stable
- Conclusion ([6]; 6th month): Qualified
- Content (anhydrous and insoluble residue)/HPLC ([6]; 6th month): 99.5%
- Isomer/HPLC: Chiral purity ([6]; 6th month): 100.0%
- Isomer/HPLC: Isomer 1 ([6]; 6th month): 0.04%
- Moisture ([6]; 6th month): 0.1%
- Related substances/HPLC: Impurity 3 ([6]; 6th month): <0.05%
- Related substances/HPLC: Other impurities ([6]; 6th month): <0.05%
- Related substances/HPLC: Total impurities ([6]; 6th month): <0.05%
- New impurity peak ([6]; 6th month vs 0th month): ≤ 0.10%
- Characters ([7]; 0th month): White powder
- Conclusion ([7]; 0th month): Qualified
- Content (anhydrous and insoluble residue)/HPLC ([7]; 0th month): 99.4%
- Isomer/HPLC: Chiral purity ([7]; 0th month): 100.0%
- Isomer/HPLC: Isomer 1 ([7]; 0th month): 0.05%
- Moisture ([7]; 0th month): 0.2%
- Related substance/HPLC: Impurity 3 ([7]; 0th month): <0.05%
- Related substance/HPLC: Other impurities ([7]; 0th month): 0.05%
- Related substance/HPLC: Total impurities ([7]; 0th month): 0.05%
- Characters ([7]; 3rd month): White powder
- Conclusion ([7]; 3rd month): Qualified
- Content (anhydrous and insoluble residue)/HPLC ([7]; 3rd month): 99.9%
- Isomer/HPLC: Chiral purity ([7]; 3rd month): 99.9%
- Isomer/HPLC: Isomer 1 ([7]; 3rd month): 0.06%
- Moisture ([7]; 3rd month): 0.1%
- Related substance/HPLC: Impurity 3 ([7]; 3rd month): <0.05%
- Related substance/HPLC: Other impurities ([7]; 3rd month): 0.05%
- Related substance/HPLC: Total impurities ([7]; 3rd month): 0.05%
- Stability under the long-term condition ([7]; 6 months vs 0th month): stable
- Characters ([7]; 6th month): White powder
- Conclusion ([7]; 6th month): Qualified
- Content (anhydrous and insoluble residue)/HPLC ([7]; 6th month): 99.6%
- Isomer/HPLC: Chiral purity ([7]; 6th month): 100.0%
- Isomer/HPLC: Isomer 1 ([7]; 6th month): 0.03%
- Moisture ([7]; 6th month): 0.1%
- Related substance/HPLC: Impurity 3 ([7]; 6th month): <0.05%
- Related substance/HPLC: Other impurities ([7]; 6th month): <0.05%
- Related substance/HPLC: Total impurities ([7]; 6th month): <0.05%
- New impurity peak ([7]; 6th month vs 0th month): ≤ 0.10%

— patent US20260226054A1, “CRYSTAL FORM AND AMORPHOUS SUBSTANCE OF INDOLINE SPIRO COMPOUND, AND PREPARATION METHOD THEREFOR AND USE THEREOF” (CHANGCHUN GENESCIENCE PHARMACEUTICAL CO., LTD., priority 2022, published 2026)
